Data published in ChEMBL document CHEMBL1140420, “Synthesis of tricyclic 1,3-oxazin-4-ones and kinetic analysis of cholesterol esterase and acetylcholinesterase inhibition” (J Med Chem, 2005).

Legend:
Acetylcholinesterase = Acetylcholinesterase (Electrophorus electricus, UniProt O42275)
Description: Inhibitory activity AChE from Electrophorus electricus using ATCh substrate and DTNB by spectrophotometry

[1] = target: T1, Bile salt-activated lipase (Bos taurus, UniProt P30122)
T1 sequence (P30122 whole entry): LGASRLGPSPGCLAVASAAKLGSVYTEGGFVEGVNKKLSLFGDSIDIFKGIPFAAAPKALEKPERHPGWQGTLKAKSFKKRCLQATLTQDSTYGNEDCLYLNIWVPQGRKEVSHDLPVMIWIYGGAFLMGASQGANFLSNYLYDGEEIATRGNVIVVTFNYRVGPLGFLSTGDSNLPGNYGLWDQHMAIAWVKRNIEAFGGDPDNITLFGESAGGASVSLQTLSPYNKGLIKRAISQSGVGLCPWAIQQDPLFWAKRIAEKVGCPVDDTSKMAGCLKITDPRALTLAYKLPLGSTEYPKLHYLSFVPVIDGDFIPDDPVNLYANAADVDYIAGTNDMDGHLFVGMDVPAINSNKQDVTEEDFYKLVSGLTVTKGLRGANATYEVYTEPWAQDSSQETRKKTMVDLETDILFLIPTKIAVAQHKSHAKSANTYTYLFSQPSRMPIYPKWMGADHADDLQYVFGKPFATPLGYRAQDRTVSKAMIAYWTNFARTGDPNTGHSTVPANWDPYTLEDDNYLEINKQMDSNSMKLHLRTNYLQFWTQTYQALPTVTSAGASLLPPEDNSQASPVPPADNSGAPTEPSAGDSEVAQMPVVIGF
Description: Inhibitory activity against bovine pancreatic CEase in presence of pNPB chromogenic substrate by spectrophotometry

Acetylcholinesterase, sequence (O42275 whole entry): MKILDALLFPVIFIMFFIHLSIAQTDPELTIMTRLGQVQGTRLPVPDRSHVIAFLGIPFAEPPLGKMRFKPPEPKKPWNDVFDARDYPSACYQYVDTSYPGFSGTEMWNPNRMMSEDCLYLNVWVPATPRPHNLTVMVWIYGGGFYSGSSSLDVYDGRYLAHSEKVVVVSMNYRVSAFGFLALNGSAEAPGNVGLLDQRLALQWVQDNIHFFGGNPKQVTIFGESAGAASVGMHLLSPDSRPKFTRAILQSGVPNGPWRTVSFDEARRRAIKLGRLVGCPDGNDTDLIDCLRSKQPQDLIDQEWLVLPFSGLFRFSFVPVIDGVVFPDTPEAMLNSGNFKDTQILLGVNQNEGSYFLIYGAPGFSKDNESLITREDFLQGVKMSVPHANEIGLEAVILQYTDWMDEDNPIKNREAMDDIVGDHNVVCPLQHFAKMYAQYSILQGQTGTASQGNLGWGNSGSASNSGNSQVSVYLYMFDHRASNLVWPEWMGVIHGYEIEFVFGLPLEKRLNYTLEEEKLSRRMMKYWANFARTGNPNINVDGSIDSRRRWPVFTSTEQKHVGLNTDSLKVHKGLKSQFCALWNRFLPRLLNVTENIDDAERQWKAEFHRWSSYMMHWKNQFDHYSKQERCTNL

| Compound | IC50 (Acetylcholinesterase) [µM] | Ki [1] [µM] | Ki (Acetylcholinesterase) [µM] |
| --- | --- | --- | --- |
| O=C(Nc1nc2sc3c(c2c(=O)o1)CCN(Cc1ccccc1)C3)c1ccccc1 | 2.86 | > 50 |  |
| CCN(CC)c1nc2sc3ccccc3c2c(=O)o1 | > 50 | 7.5 |  |
| Nc1nc2sc3c(c2c(=O)s1)CCN(Cc1ccccc1)C3 | 1.2 | > 50 |  |
| CN(Cc1ccccc1)c1nc2sc3c(c2c(=O)o1)CCN(Cc1ccccc1)C3 | 0.84 | > 50 |  |
| O=c1oc(N2CCOCC2)nc2sc3c(c12)CCCC3 | > 50 | 5.7 |  |
| CCN(CC)c1nc2sc3c(c2c(=O)o1)C(C)CCC3 (stereo not drawn) | > 50 | 1.64 |  |
| CC(C)Nc1nc2sc3c(c2c(=O)s1)CCN(Cc1ccccc1)C3 | 0.58 | > 50 |  |
| CC(C)CN1CCc2c(sc3nc(N(C)C)oc(=O)c23)C1 | 0.36 | > 50 | 0.66 |
| O=c1oc(Nc2ccccc2)nc2sc3c(c12)CCN(Cc1ccccc1)C3 | 0.94 | > 50 |  |
| CN(C)c1nc2sc3c(c2c(=O)o1)CCSC3 | > 50 | 5.76 |  |
| O=c1oc(N2CCOCC2)nc2sc3c(c12)CCN(Cc1ccccc1)C3 | 0.77 | > 50 |  |
| COc1ccc(CN(C)c2nc3sc4c(c3c(=O)o2)CCN(Cc2ccccc2)C4)cc1OC | 0.33 | > 50 |  |
| CN(C)c1nc2sc3c(c2c(=O)o1)CCN(C(=O)c1ccccc1)C3 | 35.6 | > 50 |  |
| CN(C)c1nc2sc3c(c2c(=O)o1)CCCC3 | > 50 | 2.15 |  |
| CN1CCc2c(sc3nc(N(C)C)oc(=O)c23)C1 | 38.9 | > 50 |  |
| CCN1CCc2c(sc3nc(N(C)C)oc(=O)c23)C1 | 10.5 | > 50 |  |
| CCN(CC)c1nc2sc(C(N)=O)c(C)c2c(=O)o1 | > 50 | > 50 |  |
| CCN(CC)c1nc2sc3c(c2c(=O)o1)CCC3 | > 50 | 0.58 |  |

| Compound | IC50 (Acetylcholinesterase) [µM] | Ki [1] [µM] | Ki (Acetylcholinesterase) [µM] |
| --- | --- | --- | --- |
| CCN(CC)c1nc2scc(C(C)C)c2c(=O)o1 | > 50 | 6.4 |  |
| CN(C)c1nc2sc3c(c2c(=O)o1)CCN(Cc1ccccc1)C3 | 0.89 | > 50 | 1.7 |
| O=c1oc(NC2CCCCC2)nc2sc3c(c12)CCN(Cc1ccccc1)C3 |  | > 50 |  |
| CCN(CC)c1nc2sc3c(c2c(=O)o1)CCCC3 | > 50 | 1.86 |  |
| CCN(CC)c1nc2scc(C)c2c(=O)o1 | > 50 | 15 |  |
| CN(C)c1nc2sc3c(c2c(=O)o1)CCC3 | > 50 | 0.63 |  |
| CCN(CC)c1nc2sc3c(c2c(=O)o1)CCCCC3 | > 50 | 6 |  |
| CN(C)c1nc2sc3c(c2c(=O)o1)CCOC3 | > 50 | > 50 |  |
| O=C(Nc1nc2sc3c(c2c(=O)s1)CCN(Cc1ccccc1)C3)c1ccccc1 | 5.2 | > 50 |  |
| CCN(CC)c1nc2sc3c(c2c(=O)o1)CCN(Cc1ccccc1)C3 | 2.08 | > 50 |  |
| Nc1nc2sc3c(c2c(=O)o1)CCN(Cc1ccccc1)C3 | 5.9 | > 50 |  |
| CC(C)Nc1nc2sc3c(c2c(=O)o1)CCN(Cc1ccccc1)C3 | 0.74 | > 50 |  |
| O=c1sc(Nc2ccccc2)nc2sc3c(c12)CCN(Cc1ccccc1)C3 | 1.03 | > 50 |  |
| CCN(CC)c1nc2sc(C)c(C)c2c(=O)o1 | > 50 | 4.3 |  |
| O=c1oc(N2CCN(Cc3ccccc3)CC2)nc2sc3c(c12)CCN(Cc1ccccc1)C3 | 1.32 | > 50 |  |
| O=c1sc(NC2CCCCC2)nc2sc3c(c12)CCN(Cc1ccccc1)C3 | 2.82 | > 50 |  |
| CC(C)Nc1nc2sc3c(c2c(=O)o1)CCCC3 | > 50 | > 50 |  |
| CN(c1nc2sc3c(c2c(=O)o1)CCCC3)C1CCCCC1 | > 50 | 18 |  |
